This passage reports IC50 results from US20230382894A1, “CCR4 ANTAGONISTS” (CHEMOCENTRYX, INC., priority 2022, published 2023).

Some results are limits rather than exact numbers.

For test [1], the target named is T1, CCR4 (Homo sapiens, UniProt P51679).
T1 construct: CEM Cells Endogenous Express CCR4; endogenous in cells; host or cells: CEM cells
T1 sequence (P51679 1-360): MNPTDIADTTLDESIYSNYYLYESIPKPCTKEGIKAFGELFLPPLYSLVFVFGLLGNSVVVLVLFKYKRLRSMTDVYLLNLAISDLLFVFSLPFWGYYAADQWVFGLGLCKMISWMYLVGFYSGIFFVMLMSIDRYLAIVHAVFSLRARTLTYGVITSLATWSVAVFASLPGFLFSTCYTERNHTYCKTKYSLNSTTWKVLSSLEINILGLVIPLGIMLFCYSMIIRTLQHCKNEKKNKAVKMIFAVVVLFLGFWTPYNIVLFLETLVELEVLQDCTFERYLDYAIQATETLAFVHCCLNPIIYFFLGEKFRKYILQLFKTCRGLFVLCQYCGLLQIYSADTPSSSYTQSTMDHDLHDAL
The experiment in a line: CEM cell chemotaxis (migration) assay to CCL22 (MDC) in HBSS buffer with 0.1% BSA. Format: cell-based. The settings on record: CEM cells in HBSS with 0.1% BSA; recombinant human CCL22 0.1 nM; 37° C. 60 minutes. The text has this:
CEM Cells Endogenous Express CCR4
A chemotaxis assay can be used to determine the efficacy of potential receptor antagonists at blocking the migration mediated through chemokine receptors, such as CCR4. This assay is routinely performed using the ChemoTX® microchamber system with a 5 μm pore-sized polycarbonate membrane.
HBSS: CEM Cells are collected by centrifugation at 400×g at room temperature, then suspended at 5 million/ml in Hanks' Balanced Salt Solution (HBSS) buffer with 0.1% BSA. The compound being tested is serially diluted from a maximum final concentration of 10 μM (or an equivalent volume of its solvent (DMSO)) and is then added to the cell/buffer mixture. Separately, recombinant human CCL22 (MDC) at its EC50 concentration (0.1 nM) is placed in the lower wells of the ChemoTX® plate. The 5-μm (pore size) polycarbonate membrane was placed onto the plate, and 20 μL of the cell/compound mixture is transferred onto each well of the membrane. The plates are incubated at 37° C. for 60 minutes, after which the polycarbonate membranes are removed and 5 μl of the DNA-intercalating dye CyQUANT (Invitrogen, Carlsbad, CA) is added to the lower wells. The amount of fluorescence, corresponding to the number of migrated cells, is measured using a Spectrafluor Plus plate reader (TECAN, San Jose, CA).

The target of test [2] is T1, CCR4. In words: CEM cell chemotaxis (migration) assay to CCL22 (MDC) in 100% Fetal Bovine Serum (FBS). Format: cell-based. The settings on record: CEM cells in 100% FBS with 1% HEPEs; recombinant human CCL22 0.1 nM; 37° C. 60 minutes. The procedure, abridged:
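Endogenously CCR4-expressing CEM cells in 100% FBS with 1% HEPES were preincubated with serially diluted compound (top final 10 μM) and allowed to migrate through 5 μm polycarbonate membranes toward 0.1 nM human CCL22 (EC50) for 60 min at 37 °C. Migrated cells were quantified by CyQUANT fluorescence.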

As for `C[C@@H](Nc1nc(N2CCN(C(=O)[C@H]3CCCN3)C(C)(C)C2)ncc1Cl)c1ccc(Cl)cc1Cl` [Example 1.030], the IC50 was above 1000 nM at CCR4 [1] and 100 to 1000 nM on CCR4 [2].

Turning to `C[C@@H](Nc1nc(N2CCN(C(=O)[C@H]3CCC(=O)N3)CC2)ncc1Cl)c1cc(Cl)cc(Cl)c1` [Example 1.083], the IC50 at CCR4 [1] and on CCR4 [2] was above 1000 nM throughout. Take `C[C@@H](Nc1nc(N2CCN(C(=O)CN(C)C)CC2)ncc1Cl)c1ccc(Cl)cc1Cl` [Example 1.041]: the IC50 at CCR4 [1] and at CCR4 [2] was below 100 nM in each case.

`C[C@@H](Nc1nc(N2CCN(C3CCCN(CC(=O)O)C3)CC2)ncc1Cl)c1ccc(Cl)cc1Cl` (some centres unmarked) [Example 1.063]: the IC50 on CCR4 [1] and at CCR4 [2] was below 100 nM in each case. `C[C@@H](Nc1nc(N2CCC(C(=O)N(C)CCN(C)C)CC2)ncc1Cl)c1ccc(Cl)cc1Cl` [Example 1.025]: the IC50 on CCR4 [1] and on CCR4 [2] was below 100 nM throughout.

For the compound `C[C@@H](Nc1nc(N2CCN(C(=O)[C@H]3CCCN3CCO)CC2)ncc1Cl)c1ccc(Cl)cc1Cl` [Example 1.046], the concentration for half-maximal inhibition (IC50) on CCR4 [1] and at CCR4 [2] was below 100 nM in each case. For `C[C@@H](Nc1nc(N2CC[C@@H](NC(=O)[C@H]3CCCN3)C2)ncc1Cl)c1ccc(Cl)cc1Cl` [Example 1.015], the IC50 at CCR4 [1] and at CCR4 [2] was below 100 nM in each case. Turning to `C[C@@H](Nc1nc(N2CCC(NC(=O)[C@H]3CCCN3)CC2)ncc1Cl)c1ccc(Cl)cc1Cl` [Example 1.039], the 50% inhibitory concentration (IC50) on CCR4 [1] and on CCR4 [2] was below 100 nM in each case. On to `C[C@@H]1CN(C(=O)[C@H]2CCC(=O)N2)CCN1c1ncc(Cl)c(N[C@H](C)c2ccc(Cl)cc2Cl)n1` [Example 1.078], for which the IC50 on CCR4 [1] and at CCR4 [2] was below 100 nM each time.

As for `C[C@@H](Nc1ncc(C(F)(F)F)c(N2CCN(C(=O)[C@H]3CCCN3)CC2)n1)c1ccc(Cl)cc1Cl` [Example 1.006], the IC50 at CCR4 [1] and on CCR4 [2] was below 100 nM in each case. Turning to `CNC1CCN(C(=O)C2CCN(c3ncc(Cl)c(N[C@H](C)c4ccc(Cl)cc4Cl)n3)CC2)C1` (some centres unmarked) [Example 1.068], the half-maximal inhibitory concentration (IC50) on CCR4 [1] and at CCR4 [2] was below 100 nM each time.

Consider `C[C@@H](Nc1nc(N2CCN(C(=O)[C@H]3C[C@@H](O)CN3)CC2)ncc1Cl)c1ccc(Cl)cc1Cl` [Example 1.069], for which the IC50 on CCR4 [1] and on CCR4 [2] was below 100 nM in each case.

For `C[C@@H]1CN(c2ncc(Cl)c(N[C@H](C)c3ccc(Cl)cc3Cl)n2)[C@@H](C)CN1C1CCCN(CCC(=O)O)C1` (some centres unmarked) [Example 1.017], the 50% inhibitory concentration (IC50) on CCR4 [1] and on CCR4 [2] was below 100 nM each time. In the case of `C[C@@H](Nc1nc(N2CCC(C3CCCN(CCO)C3)CC2)ncc1Cl)c1ccc(Cl)cc1Cl` (some centres unmarked) [Example 1.047], the IC50 on CCR4 [1] and on CCR4 [2] was below 100 nM in each case. Turning to `CC(Nc1nc(N2CCC(C(=O)N(C)C3CCNC3)CC2)ncc1Cl)c1ccc(Cl)cc1Cl` (centres unmarked) [Example 1.065], the IC50 on CCR4 [1] and at CCR4 [2] was below 100 nM each time. For `C[C@@H]1CN(c2ncc(Cl)c(N[C@H](C)c3ccc(Cl)cc3Cl)n2)[C@@H](C)CN1C(=O)[C@H]1CCCN1` [Example 1.034], the IC50 at CCR4 [1] and at CCR4 [2] was below 100 nM each time. Regarding `C[C@@H](Nc1nc(N2CCN(C(=O)C(C)(C)N)CC2)ncc1Cl)c1ccc(Cl)cc1Cl` [Example 1.040], the IC50 at CCR4 [1] and on CCR4 [2] was below 100 nM each time. In the case of `C[C@@H](Nc1nc(N2CCN(C(=O)[C@H]3COCCN3)CC2)ncc1Cl)c1ccc(Cl)cc1Cl` [Example 1.135], the IC50 on CCR4 [1] and at CCR4 [2] was below 100 nM throughout. Take `C[C@@H](Nc1nc(N2CCN(C(=O)[C@H]3CCC(=O)N3)CC2)ncc1Cl)c1c(F)cc(Cl)cc1Cl` [Example 1.250]: at CCR4 [1], the IC50 was below 100 nM. Consider `C[C@@H](Nc1nc(N2CCN(C(=O)[C@H]3CCCN3)CC2)ncc1F)c1ccc(Cl)cc1Cl` [Example 1.157], for which the half-inhibitory concentration (IC50) at CCR4 [2] is below 100 nM. Still for that read-out and setting: the figure for `C[C@@H](Nc1nc(N2CCN(C(=O)[C@@H]3CNCC(=O)N3)CC2)ncc1Cl)c1ccc(Cl)cc1Cl` [Example 1.229] is above 1000 nM; for `COc1cnc(N2CCN(C(=O)[C@H]3CCC(=O)N3)CC2)nc1N[C@H](C)c1ccc(Cl)cc1Cl` [Example 1.188] it is below 100 nM. `C[C@@H](Nc1nc(N2CC[C@H](NC(=O)[C@H]3CCC(C)(C)N3)[C@@H](O)C2)ncc1Cl)c1ccc(Cl)cc1Cl` [Example 1.123]: the half-inhibitory concentration (IC50) at CCR4 [2] is below 100 nM. In the case of `C[C@@H]1CN(c2ncc(Cl)c(N[C@H](C)c3ccc(Cl)cc3Cl)n2)CCN1C(=O)[C@H]1CCC(=O)N1` [Example 1.112], the IC50 on CCR4 [2] was below 100 nM.

As to `C[C@@H](Nc1nc(N2CC[C@H](NC(=O)[C@@]3(C)CCCN3)[C@@H](O)C2)ncc1Cl)c1ccc(Cl)cc1Cl` [Example 1.246], the IC50 on CCR4 [2] lay in the range of 100 to 1000 nM.

Take `CC(C)Oc1cnc(N2CCN(C(=O)[C@H]3CCCN3)CC2)nc1N[C@H](C)c1ccc(Cl)cc1Cl` [Example 1.174]: on CCR4 [2], the IC50 is below 100 nM.

In the case of `C[C@@H](Nc1nc(N2CC[C@H](NC(=O)CN(C)C)[C@@H](O)C2)ncc1Cl)c1ccc(Cl)cc1Cl` [Example 1.203], the 50% inhibitory concentration (IC50) on CCR4 [2] lay in the range of 100 to 1000 nM. Same read-out and setting: the figure for `C[C@@H](Nc1nc(N2CCC(C(=O)N[C@H]3CCNC3=O)CC2)ncc1Cl)c1ccc(Cl)cc1Cl` [Example 1.233] is above 1000 nM; for `C[C@@H](Nc1nc(N2CCC(O[C@@H]3CCNC3)CC2)ncc1Cl)c1ccc(Cl)cc1Cl` [Example 1.211] it is below 100 nM; for `C[C@@H](Nc1nc(N2CCC(C(=O)NC[C@H]3CCC(=O)N3)CC2)ncc1Cl)c1ccc(Cl)cc1Cl` [Example 1.235] it is above 1000 nM. Turning to `CC(C)Oc1cnc(N2CCN(C(=O)C[C@@H]3CCCN3)CC2)nc1N[C@H](C)c1ccc(Cl)cc1Cl` [Example 1.161], the 50% inhibitory concentration (IC50) at CCR4 [2] was below 100 nM. The same measure, in the same setting: the figure for `Cc1nc(N2CCN(C(=O)[C@H]3CCC(=O)N3)CC2)nc(N[C@H](C)c2c(F)cc(Cl)cc2Cl)c1Cl` [Example 1.260] is below 100 nM; for `C[C@@H](Nc1nc(N2CCN(C(=O)[C@H]3CCC(=O)N3)CC2)nc(N)c1Cl)c1ccc(Cl)cc1Cl` [Example 1.084] it is below 100 nM; for `COc1cnc(N2CCN(C(=O)[C@H]3CCCN3C)CC2)nc1N[C@H](C)c1ccc(Cl)cc1Cl` [Example 1.156] it is below 100 nM.

Regarding `Cc1nc(N2CCN(C(=O)[C@H]3CCC(=O)N3)[C@H](C)C2)nc(N[C@H](C)c2ccc(Cl)cc2Cl)c1Cl` [Example 1.105], the half-inhibitory concentration (IC50) on CCR4 [2] was below 100 nM. On the same count and under the same terms, the figure for `COc1cnc(N2CCC(C3CCCN(CCO)C3)CC2)nc1N[C@H](C)c1ccc(Cl)cc1Cl` (some centres unmarked) [Example 1.158] is below 100 nM; for `C[C@@H](Nc1nc(N2CCN(C(=O)[C@H]3CCCN3)CC2)ncc1C#N)c1ccc(Cl)cc1Cl` [Example 1.207] it is 100 to 1000 nM. Turning to `C[C@@H](Nc1nc(N2CC[C@H](NC(=O)[C@H]3CCCN3)[C@@H](O)C2)ncc1F)c1ccc(Cl)cc1Cl` [Example 1.107], the 50% inhibitory concentration (IC50) at CCR4 [2] is below 100 nM. Same read-out and setting: the figure for `C[C@@H](Nc1nc(N2CCN(C(=O)[C@H]3CCN(C)C3)CC2)ncc1C(N)=O)c1ccc(Cl)cc1Cl` [Example 1.236] is below 100 nM; for `C[C@@H](Nc1nc(N2CCN(C(=O)[C@H]3CCC(=O)N3)CC2)ncc1OCC(F)(F)F)c1ccc(Cl)cc1Cl` [Example 1.099] it is 100 to 1000 nM. On the same count and under the same terms, the figure for `C[C@@H](Nc1nc(C2CCN(C(=O)[C@H]3CCCN3)CC2)ncc1Cl)c1ccc(Cl)cc1Cl` [Example 1.159] is below 100 nM; for `C[C@@H](Nc1nc(N2CCN(C(=O)CN3CCCC3)CC2)ncc1Cl)c1ccc(Cl)cc1Cl` [Example 1.192] it is below 100 nM; for `C[C@@H](Nc1nc(N2CCN(C(=O)[C@H]3CNC(=O)N3)CC2)ncc1Cl)c1ccc(Cl)cc1Cl` [Example 1.222] it is below 100 nM. As for `C[C@@H](Nc1nc(N2CCN(C(=O)[C@H]3CCC(=O)N3)CC2)ncc1F)c1ccc(Cl)cc1Cl` [Example 1.117], on CCR4 [2], the concentration for half-maximal inhibition (IC50) is below 100 nM. The same measure, in the same setting: next, `C[C@@H](Nc1nc(N2CCN(C(=O)[C@@]3(C)CCCN3)CC2)ncc1Cl)c1ccc(Cl)cc1Cl` [Example 1.210]: below 100 nM. Same read-out and setting: the figure for `C[C@@H](Nc1nc(N2CCN(C(=O)[C@H]3CC4(CC4)C(=O)N3)CC2)ncc1Cl)c1ccc(Cl)cc1Cl` [Example 1.195] is 100 to 1000 nM. Regarding `C[C@@H](Nc1nc(N2CC[C@H](NC(=O)[C@H]3CCCN3C)[C@@H](O)C2)ncc1Cl)c1ccc(Cl)cc1Cl` [Example 1.224], on CCR4 [2], the 50% inhibitory concentration (IC50) is below 100 nM.
